Results reported in patent US20240238232A1, “COMPOSITIONS AND METHODS FOR THE REDUCTION OR TREATMENT OF INSULIN RESISTANCE AND METABOLIC CONDITIONS” (AXCELLA HEALTH INC., priority 2018, published 2024).

What was measured:
Assay type in all cases: in vivo
FATZO mouse model [1] = assay: Body weight, liver weight and clinical observations in FATZO mice on WDF, Example 5; settings: oral gavage 4 weeks, LIVRQNAC 3000 mg/kg, LIVRQNAC+G 3,885 mg/kg, LRQNAC 2,469 mg/kg BID, OCA QD
Text: (§1) NASH was induced in 60 male FATZO mice by a western diet (Research Diet #D12079B; fat 40% kcal, protein 17% kcal, carbohydrate 43% kcal) supplemented with 500 fructose in the drinking water (WDF) during a 16 week induction phase. Diets and water were available ad libitum. Littermate control male FATZO mice fed with a control diet (n=6, Purina #5008; fat 17% kcal, protein 27% kcal, carbohydrate 56% kcal) and sterile water were set up for control purpose. Mice were housed in plastic cages with microisolator. Sterilized bedding was replaced once a week. Mice were housed three per cage and maintained on a twelve hour light cycle throughout study duration. Room temperature was monitored daily and maintained at 22-25° C. Body weight was recorded every week during the induction phase. […]
(§2) […], […]+G, LRQNAC, OCA and Vehicle were administered by oral gavage at a volume of 10 mL/kg throughout the study. Dosages were calculated by daily body weight. […]
The viability, clinical signs and behavior were monitored daily. Body weight was recorded daily during the dosing period. […]
Animals were anesthetized with CO2 inhalation and exsanguinated via cardiac puncture for euthanasia. […] Organ weights (total liver, gonadal fat pads) were recorded. […]

FATZO mouse model [2] = assay: Liver fibrosis score and Sirius Red collagen staining in FATZO mice on WDF, Example 5; settings: oral, 4 weeks, LIVRQNAC + G 3885 mg/kg, LRQNAC 2469 mg/kg, OCA 30 mg/kg/day
Text: as §1, §2
The livers were evaluated using the NASH liver criteria for scoring. In this mouse study, one cross section of liver for each case was analyzed with the NASH score system. […] The NAS can range from 0 to 8 and is calculated by the sum of scores of steatosis (0-3), lobular inflammation (0-3) and hepatocyte ballooning (0-2) from H&E stained sections. Fibrosis was scored (0-4) from picrosirius red stained slides. […]

FATZO mouse model [3] = assay: Liver Oil Red O staining area in FATZO mice on WDF, Example 5; settings: oral, 4 weeks, LIVRQNAC + G 3885 mg/kg, LRQNAC 2469 mg/kg, OCA 30 mg/kg/day
Text: as §1, §2
Aperio Automatic Image Quantitation was employed to quantify positive pixels of immunohistochemical staining, Oil-Red 0, and Sirius Red staining. The Positive Pixel Count algorithm was used to quantify the percentage of a specific stain present in a scanned slide image. A range of color (range of hues and saturation) and three intensity ranges (weak, positive, and strong) were masked and evaluated. […]

FATZO mouse model [4] = assay: Liver histology: NAFLD activity score, steatosis, inflammation, ballooning in FATZO mice on WDF, Example 5; settings: 4 weeks
Text: NASH was induced in 60 male FATZO mice by a western diet (Research Diet #D12079B; fat 40% kcal, protein 17% kcal, carbohydrate 43% kcal) supplemented with 500 fructose in the drinking water (WDF) during a 16 week induction phase. Diets and water were available ad libitum. Littermate control male FATZO mice fed with a control diet (n=6, Purina #5008; fat 17% kcal, protein 27% kcal, carbohydrate 56% kcal) and sterile water were set up for control purpose. Mice were housed in plastic cages with microisolator. Sterilized bedding was replaced once a week. Mice were housed three per cage and maintained on a twelve hour light cycle throughout study duration. Room temperature was monitored daily and maintained at 22-25° C. Body weight was recorded every week during the induction phase.
Following 16 weeks diet induction, 6 mice remained on control diet (group 1, Control) while 60 induced mice were randomized on body weight and plasma glucose (fed) for assignment to the following treatments. FATZO mice were administered with test articles starting at 16 weeks post western diet NASH induction for 4 weeks. Test articles were administered by oral gavage. Animals were euthanized at 20 weeks post western diet NASH induction, and tissues were harvested for analysis.
[…], […]+G, LRQNAC, OCA and Vehicle were administered by oral gavage at a volume of 10 mL/kg throughout the study. Dosages were calculated by daily body weight. […], […]+G, LRQNAC, and Vehicle were administered twice per day (BID), while OCA was administered once a day (QD) in the morning. Mice receiving OCA once per day (QD), and one vehicle QD. Doses were administered by oral gavage at 0700 and 1800 by oral gavage for 4 weeks.
The liver tissues were fixed in Bouin's solution at 4° C. for 24 hours followed by baths of standard concentrations of alcohol then xylene to prepare the tissues for paraffin embedding.
After being embedded in paraffin and cooled, five-micron sections were cut and stained for routine H&E and Picric Sirius Red. A section of both right and left lobes of the livers were frozen in OCT for analysis of lipid content with Oil-Red-) staining. The Aperio whole slide digital imaging system (Scan Scope C S, Vista, CA) was used for imaging. All slides were imaged at 20×. The scan time ranged from 1.5 minutes to a maximum time of 2.25 minutes. The whole images were housed and stored in their Spectrum software system and images were shot from the whole slides.
The livers were evaluated using the NASH liver criteria for scoring. In this mouse study, one cross section of liver for each case was analyzed with the NASH score system. According to the published NASH CRN Scoring System, this scoring system comprises of NAFLD Activity Score (NAS), fibrosis stage and identification of NASH by pattern recognition. The NAS can range from 0 to 8 and is calculated by the sum of scores of steatosis (0-3), lobular inflammation (0-3) and hepatocyte ballooning (0-2) from H&E stained sections. Fibrosis was scored (0-4) from picrosirius red stained slides. […] Steatosis, lobular inflammation, hepatocyte. balloon degeneration, fibrosis, NAS and the presence of NASH by pattern recognition were systematically assessed. In this study we evaluated one total cross section of liver per mouse in this study. […] The pathology score was determined as 0, +1, +2, or +3. The lesions were scored on location (periportal, centrilobular, and mid zonal) and fat accumulation (focal, periportal, and/or centrilobular). […]

[5] = score 0-3, oral, LIVRQNAC + G 3885 mg/kg, LRQNAC 2469 mg/kg, OCA 30 mg/kg/day

In the case of `CC[C@H]1[C@@H](O)[C@@H]2[C@H](CC[C@]3(C)[C@@H]([C@H](C)CCC(=O)O)CC[C@@H]23)[C@@]2(C)CC[C@@H](O)C[C@@H]12` [OCA, 6α-ethyl-chenodeoxycholic acid], the “Liver weight (% body weight)” value (FATZO mouse model [1]) is reported as 6.81±0.2 % body weight, the “Fibrosis (score)” value (FATZO mouse model [2]) is reported as 0.67 ± 0.167 and the “Sirius Red (collagen staining)” value (FATZO mouse model [2]) is reported as 1.59 ± 0.36. For the same molecule, the “Oil Red O (staining area)” value (FATZO mouse model [3]) was 0.24 ± 0.021, the “NAFLD activity score (NAS) compared to vehicle” value (FATZO mouse model [4]) was “no significant effect” and the “Liver Pathology NAS” value (FATZO mouse model [4]; oral, LIVRQNAC + G 3885 mg/kg, LRQNAC 2469 mg/kg, OCA 30 mg/kg/day) was 3.72 ± 0.147. The “Liver Pathology Ballooning” value (FATZO mouse model [4]; score 0-2, oral, LIVRQNAC + G 3885 mg/kg, LRQNAC 2469 mg/kg, OCA 30 mg/kg/day) was 0.94 ± 0.056, the “Liver Pathology Inflammation” value (FATZO mouse model [4]; [5]) was 1.0 ± 0.0 and the “Liver Pathology Steatosis” value (FATZO mouse model [4]; [5]) was 1.78 ± 0.147.
